Measured values as given in ChEMBL document CHEMBL1201862, “PubChem BioAssay data set” (2004).
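Protocol summary: plate cells (96-well), add compound at 5 concentrations, incubate 48 h, interpolate endpoints linearly. GI50: concentration for 50% inhibition of growth.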 Calls of active or inactive are those of the source. Cut-off read from the data, not from the text of the source: active = GI50 up to about 1.1 µM and inactive = higher.

How the values were obtained:
Experiment in all cases: NCI anticancer screen, dose series, 48 h
A498 = tested on: A498
DU-145 = tested on: DU-145
HCT-116 = tested on: HCT-116
HOP-92 = tested on: HOP-92
IGROV-1 = tested on: IGROV-1
KM12 = tested on: KM12
NCI-H226 = tested on: NCI-H226
NCI-H23 = tested on: NCI-H23
NCI/ADR-RES = tested on: NCI/ADR-RES
OVCAR-3 = tested on: OVCAR-3
OVCAR-5 = tested on: OVCAR-5
OVCAR-8 = tested on: OVCAR-8
SF-295 = tested on: SF-295
SK-MEL-2 = tested on: SK-MEL-2
SK-MEL-5 = tested on: SK-MEL-5
SK-OV-3 = tested on: SK-OV-3
SNB-19 = tested on: SNB-19
SNB-75 = tested on: SNB-75
UACC-62 = tested on: UACC-62
Malme-3M = tested on: Malme-3M

Measured: GI50

CCOC(=O)c1ccc2c(c1)nc1n2C(c2c(F)cccc2F)SC1 (centres undefined)
inactive: A498 > 100 µM | DU-145 30.6 µM | HCT-116 15.6 µM | HOP-92 40.6 µM | KM12 17.1 µM | NCI-H226 6.9 µM | NCI-H23 17.6 µM | NCI/ADR-RES 18.8 µM | OVCAR-3 17.8 µM | OVCAR-5 59.6 µM | OVCAR-8 21.6 µM | SF-295 21.5 µM | SK-MEL-2 15.2 µM | SK-MEL-5 13.1 µM | SK-OV-3 94.6 µM | SNB-19 12.2 µM | SNB-75 62.5 µM | UACC-62 25.4 µM
active: IGROV-1 0.951 µM

COc1ccc(-c2nc(SCC(=O)N/N=C/c3ccc(O)c(OC)c3)[nH]c2-c2ccc(OC)cc2)cc1
inactive: A498 18.8 µM | DU-145 39.8 µM | HCT-116 17.9 µM | HOP-92 23.7 µM | KM12 33.3 µM | Malme-3M 37.8 µM | NCI-H23 21.9 µM | NCI/ADR-RES 31.8 µM | OVCAR-3 18.8 µM | OVCAR-5 27.8 µM | OVCAR-8 28.9 µM | SF-295 20.2 µM | SK-MEL-2 17.3 µM | SK-MEL-5 17.7 µM | SK-OV-3 29.4 µM | SNB-19 41.1 µM | SNB-75 47.5 µM | UACC-62 14.1 µM

CCN1CCN(c2ccc(Nc3ccnc4ccc5c(nnn5C)c34)cc2)CC1
inactive: A498 14.8 µM | DU-145 5.25 µM | HCT-116 3.44 µM | HOP-92 4.8 µM | IGROV-1 12.9 µM | KM12 3.51 µM | Malme-3M 5.89 µM | NCI-H23 11.6 µM | NCI/ADR-RES 9.14 µM | OVCAR-3 5.56 µM | OVCAR-5 9.16 µM | OVCAR-8 13.1 µM | SF-295 8.2 µM | SK-MEL-2 12.2 µM | SK-MEL-5 11 µM | SK-OV-3 11.4 µM | SNB-19 3.15 µM | SNB-75 13.9 µM | UACC-62 13.7 µM

CN(CCc1ccccn1)C(=S)N/N=C(\c1ccccc1)c1ccccn1
active: A498 < 0.01 µM | HCT-116 < 0.01 µM | IGROV-1 < 0.01 µM | KM12 0.0194 µM | Malme-3M < 0.01 µM | NCI-H23 < 0.01 µM | NCI/ADR-RES < 0.01 µM | OVCAR-3 < 0.01 µM | OVCAR-5 1.05 µM | OVCAR-8 < 0.01 µM | SF-295 < 0.0266 µM | SK-MEL-5 0.0986 µM | SK-OV-3 < 0.01 µM | SNB-19 0.215 µM | UACC-62 0.23 µM
inactive: DU-145 1.41 µM | HOP-92 1.73 µM | SK-MEL-2 1.42 µM | SNB-75 1.3 µM

Nc1ccc(/C=C/c2ccc3cccnc3c2)cc1
inactive: A498 > 100 µM | DU-145 > 100 µM | HCT-116 > 100 µM | HOP-92 > 100 µM | KM12 > 100 µM | Malme-3M > 100 µM | NCI-H226 > 100 µM | NCI-H23 > 100 µM | NCI/ADR-RES > 100 µM | OVCAR-3 > 100 µM | OVCAR-5 > 100 µM | OVCAR-8 > 100 µM | SF-295 > 100 µM | SK-MEL-5 > 100 µM | SK-OV-3 > 100 µM | SNB-19 > 100 µM | SNB-75 > 100 µM | UACC-62 > 100 µM

O=CNNC(=O)CSc1nc2ccc(I)cc2c(=O)n1Cc1ccccc1
inactive: A498 37.9 µM | DU-145 43.7 µM | HCT-116 20.4 µM | HOP-92 25.4 µM | IGROV-1 32.3 µM | KM12 33.4 µM | NCI-H226 49.3 µM | NCI-H23 36.7 µM | NCI/ADR-RES 31.3 µM | OVCAR-3 21.8 µM | OVCAR-5 61.8 µM | OVCAR-8 46.5 µM | SF-295 40.6 µM | SK-MEL-2 20.9 µM | SK-MEL-5 18.6 µM | SK-OV-3 49.7 µM | SNB-19 46.6 µM | SNB-75 45 µM | UACC-62 20.3 µM

Cc1cc(S(=O)(=O)NC2=Nc3cccc(F)c3CN2)c(S)cc1Cl
inactive: A498 > 100 µM | DU-145 74.5 µM | HCT-116 38.7 µM | HOP-92 > 100 µM | IGROV-1 36.2 µM | KM12 45.7 µM | Malme-3M > 100 µM | NCI-H226 > 100 µM | NCI/ADR-RES 49.4 µM | OVCAR-3 63 µM | OVCAR-5 > 100 µM | OVCAR-8 61 µM | SF-295 30.1 µM | SK-MEL-2 35.6 µM | SK-MEL-5 22 µM | SNB-19 23.2 µM | SNB-75 > 100 µM | UACC-62 62.1 µM

COC(=O)Nc1nc2cc(S(=O)(=O)n3nnc4ccccc43)ccc2[nH]1
inactive: A498 57 µM | DU-145 > 100 µM | HCT-116 53.8 µM | HOP-92 14.5 µM | IGROV-1 31.3 µM | KM12 > 100 µM | Malme-3M 30.5 µM | NCI-H23 41.7 µM | NCI/ADR-RES > 100 µM | OVCAR-3 > 100 µM | OVCAR-5 > 100 µM | OVCAR-8 > 100 µM | SF-295 21.4 µM | SK-MEL-2 > 100 µM | SK-MEL-5 > 100 µM | SK-OV-3 17.1 µM | SNB-19 29.9 µM | SNB-75 6.62 µM | UACC-62 41.5 µM
